Experimental findings from publication PMC12313567 (Frontiers in Cellular and Infection Microbiology, 2025) are described below.

One assay deals with AChE (Homo sapiens, UniProt P22303). In words: biochemical. The settings on record: for Ki: Lineweaver-Burk curves; for Ki / IC50: means of triplicate assays ± SEM; for AChE inhibition type: from Lineweaver-Burk curves; for IC50: 30°C. The method, then:
Reaction mixtures contained the 50 μL of 5,5′-dithio-bis(2-nitro-benzoic)acid compound (DTNB) and 100 μL of Tris–HCl solution (1 M, pH 8.0), and 20 μL AChE solution in total volume of 1 mL. The mixture was then incubated and mixed for 15 min at 30°C. Next, The reaction was started by adding 50 μL of acetylthiocholine iodide, and carried out for 5 min at 30°C. After adding substrate, the change in absorbance at 0 and 5 minutes was recorded at 412 nm.
AChE activities were determined at 30°C by using five concentrations of acetylthiocholine iodide and three concentrations of compounds.

A further assay concerns S. aureus. In words: Antimicrobial test, broth microdilution MIC. It counts as cell-based, Staphylococcus aureus (ATCC 29213). The settings on record: Staphylococcus aureus, 24 h, read-out: Minimum inhibitory concentration, S. aureus. As to the method: (§1) This study used standard strains of bacteria known to be resistant to antibiotics. These isolates were identified as three gram-positive bacteria: Bacillus subtilis, Staphylococcus aureus (ATCC 29213) and Enterococcus faecalis (ATCC 29212); and two Gram-negative bacteria: Escherichia coli (ATCC 25922) and Pseudomonas aeruginosa (ATCC 27853). The strains were grown in blood medium one night before the broth microdilution method was used. They were then passaged and stored in tryptic soy broth (TSB) at -20°C for repeat experiments. Bacterial strains were passaged in blood medium and incubated in an oven at 35 ± 2°C for 18–24 hours. At least 3–5 similar colonies were selected from the culture plate. These were picked up with a loop and transferred to 4–5 mL of liquid medium (e.g. tryptic soy broth). The broth was incubated at 35°C until the turbidity reached McFarland 0.5 (approximately 2–6 hours). The density of the culture in the broth was determined by preparing a bacterial solution with a McFarland density of 0.5. The microdilution method was used to determine MIC values. Standards were dissolved in DMSO. Positive controls were prepared with penicillin, fluconazole and gentamicin.
(§2) It was prepared at concentrations of 1, 2, 4, 8, 16, 32, 64, 128, 256 and 512 µg/mL. 1% DMSO was used as a solvent control. Compounds were spiked at initial test control concentrations of 250 µg/mL in MHB. MHB was added to all wells except the first well. 100 µl of compounds were added to the first well. Serial dilutions were then made and diluted to the minimum concentration (1 µg/ml). Then 0.5 McFarland was prepared from bacteria incubated in MHB for 1 night. Then 50 µl of bacterial suspension was added to each well. The plates were incubated at 37°C for 24 hours. The microplates were then read in the spectrophotometer at a wavelength of 620 nm.
(§3) 100 µl of MHB was added to each well of a 12-well U-bottom microplate. 100 μL of the previously prepared NHC precursor drug was taken and transferred to the first well, and 100 μL was taken again by pipetting and transferred to the second well. In this way, dilutions were made sequentially up to the 11th well. No NHC precursor was added to the 12th well, which was used as a positive control. Then 100 μL of the prepared 5 x 10^5 CFU/mL bacterial suspension was taken and added to all wells without adding to the 11th well. The 11th well was used as a negative control ([Demirhan et al., 2024]). The same study was performed for all NHC precursors. The microplates were then incubated at 35°C for 24 hours. The lowest concentration at which no growth occurred for all strains was determined as the MIC.
In general terms: In broth dilution the organism is exposed to a series of concentrations in liquid medium.

The next assay has as its system E. faecalis. Description: Antimicrobial test, broth microdilution MIC. It counts as cell-based, Enterococcus faecalis (ATCC 29212). The settings on record: Enterococcus faecalis, 24 hours, read-out: Minimum inhibitory concentration, E. faecalis. The method, then:
as §1, §2, §3

In the next assay the test system is E. coli. Description: Antimicrobial test, broth microdilution MIC. It counts as cell-based, Escherichia coli (ATCC 25922). The settings on record: Escherichia coli, 24 hours, read-out: Minimum inhibitory concentration, E. coli. The method, then: as §1, §2, §3
The subject of the next assay is P. aeruginosa. Description: Antimicrobial test, broth microdilution MIC. It counts as cell-based, Pseudomonas aeruginosa (ATCC 27853). The conditions noted are these: Pseudomonas aeruginosa, 24 hours, read-out: Minimum inhibitory concentration, P. aeruginosa. The method, then:
as §1, §2, §3

In general, Ki refers to a measure of affinity in units of concentration, obtained from inhibition or displacement. Read a high Ki as weaker binding. By IC50 is commonly meant the concentration that inhibits the measured activity by half.

Sequence of AChE (P22303 32-614): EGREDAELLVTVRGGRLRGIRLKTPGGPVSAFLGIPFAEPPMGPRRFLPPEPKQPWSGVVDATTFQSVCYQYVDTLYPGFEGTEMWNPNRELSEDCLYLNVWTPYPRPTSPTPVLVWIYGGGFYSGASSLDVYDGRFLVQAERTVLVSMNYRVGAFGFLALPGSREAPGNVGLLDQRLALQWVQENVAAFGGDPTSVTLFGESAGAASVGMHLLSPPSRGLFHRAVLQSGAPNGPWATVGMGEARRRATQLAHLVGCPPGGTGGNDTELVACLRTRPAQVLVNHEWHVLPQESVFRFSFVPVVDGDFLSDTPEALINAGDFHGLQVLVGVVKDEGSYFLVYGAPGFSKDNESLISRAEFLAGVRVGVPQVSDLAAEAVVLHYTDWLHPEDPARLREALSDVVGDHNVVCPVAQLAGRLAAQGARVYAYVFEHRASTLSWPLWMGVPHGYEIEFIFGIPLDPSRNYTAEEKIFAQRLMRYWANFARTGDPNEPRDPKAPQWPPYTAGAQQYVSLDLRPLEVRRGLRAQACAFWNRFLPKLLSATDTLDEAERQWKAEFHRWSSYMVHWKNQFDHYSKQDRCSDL

For `CC(=O)c1ccc(-n2cc[n+](CCN3CCOCC3)c2)cc1.Cl.[Cl-]` [Compound 1a, 1-(4-acetylphenyl)-3-(2-morpholino)ethylimidazolium chloride hydrochloride], the Ki at AChE was determined as 11.2 ± 1.05 µM. Besides, the AChE inhibition type entry on AChE was “Uncompetitive”. Also, the IC50 on AChE stood at 14.8 ± 0.82 µM. Also, the MIC with S. aureus is 25 µg/mL; in the assay with E. faecalis, 50 µg/mL; with E. coli, 200 µg/mL; in the assay on P. aeruginosa, 200 µg/mL.
`CC(=O)c1ccc(-n2cc[n+](CCN3CCCCC3)c2)cc1.Cl.[Cl-]` [Compound 1b, 1-(4-acetylphenyl)-3-(2-piperidino)ethylimidazolium chloride hydrochloride] registered a Ki at AChE of 1.69 ± 0.08 µM. Moreover, the AChE inhibition type result at AChE was “Uncompetitive”. It took 2.21 ± 0.16 µM to reach half-maximal inhibition on AChE (IC50). In addition, the MIC worked out at 12.5 µg/mL with S. aureus, 50 µg/mL with E. faecalis, 200 µg/mL in the assay with E. coli and 200 µg/mL in the assay with P. aeruginosa.
For the compound `CC(=O)c1ccc(-n2cc[n+](CCN3CCCC3)c2)cc1.Cl.[Cl-]` [Compound 1c, 1-(4-acetylphenyl)-3-(2-pyrrolidino)ethylimidazolium chloride hydrochloride], at AChE, the Ki worked out at 8.05 ± 0.72 µM. Also, on AChE, the AChE inhibition type result is listed as “Uncompetitive”. This compound also showed an IC50 at AChE of 10.5 ± 1.08 µM. For the same compound, the MIC in the assay on S. aureus came to 25 µg/mL; with E. faecalis, 50 µg/mL; with E. coli, 50 µg/mL; with P. aeruginosa it was 25 µg/mL.
The compound `Br.CC(=O)c1ccc(-n2cc[n+](Cc3ccccn3)c2)cc1.[Br-]` [Compound 1d, 1-(4-acetylphenyl)-3-(pyridin-2-yl)methylimidazolium bromide hydrobromide] returned an inhibitory constant (Ki) on AChE of 0.8 ± 0.06 µM. The AChE inhibition type result on AChE is “Uncompetitive”. This compound displayed a 50% inhibitory concentration (IC50) at AChE of 1.05 ± 0.07 µM. The MIC in the assay on S. aureus was found to be 50 µg/mL; with E. faecalis, 10 µg/mL; in the assay with E. coli it was 50 µg/mL; with P. aeruginosa, 200 µg/mL.
Regarding `Cl.O=Cc1ccc(-n2cc[n+](CCN3CCOCC3)c2)cc1.[Cl-]` [Compound 2a, 1-(4-formylphenyl)-3-(2-morpholino)ethylimidazolium chloride hydrochloride], on AChE, the affinity corresponds to a Ki of 0.66 ± 0.03 µM. In addition, on AChE, the AChE inhibition type entry is reported as “Uncompetitive”. Further, the IC50 at AChE worked out at 0.87 ± 0.06 µM. The MIC was 250 µg/mL with S. aureus, 250 µg/mL in the assay with E. faecalis, 200 µg/mL with E. coli and 200 µg/mL in the assay on P. aeruginosa.
`Cl.O=Cc1ccc(-n2cc[n+](CCN3CCCCC3)c2)cc1.[Cl-]` [Compound 2b, 1-(4-formylphenyl)-3-(2-piperidino)ethylimidazolium chloride hydrochloride] showed an inhibition constant Ki on AChE of 0.78 ± 0.05 µM. Moreover, the AChE inhibition type entry on AChE was “Uncompetitive”. On AChE, half-maximal inhibition (IC50) was put at 1.02 ± 0.08 µM. For the same compound, the MIC with S. aureus amounted to 250 µg/mL; with E. faecalis, 50 µg/mL; in the assay on E. coli, 100 µg/mL; with P. aeruginosa it was 200 µg/mL.
Regarding `Cl.O=Cc1ccc(-n2cc[n+](CCN3CCCC3)c2)cc1.[Cl-]` [Compound 2c, 1-(4-formylphenyl)-3-(2-pyrrolidino)ethylimidazolium chloride hydrochloride], the affinity on AChE, expressed as Ki, was 3.16 ± 0.24 µM. The AChE inhibition type result on AChE is listed as “Uncompetitive”. The same compound came in with a half-inhibitory concentration (IC50) against AChE of 4.13 ± 0.25 µM. The MIC in the assay on S. aureus came out at 100 µg/mL; with E. faecalis, 50 µg/mL; in the assay on E. coli it was 200 µg/mL; in the assay on P. aeruginosa, 200 µg/mL.
In turn, `Br.O=Cc1ccc(-n2cc[n+](Cc3ccccn3)c2)cc1.[Br-]` [Compound 2d, 1-(4-formylphenyl)-3-(pyridin-2-yl)methylimidazolium bromide hydrobromide] had an inhibitory constant (Ki) at AChE of 0.63 ± 0.04 µM. In addition, the AChE inhibition type result on AChE is on record as “Uncompetitive”. Also, the concentration for half-maximal inhibition (IC50) on AChE came out at 0.82 ± 0.06 µM. For the same compound, the MIC was 250 µg/mL with S. aureus, 100 µg/mL in the assay with E. faecalis, 200 µg/mL in the assay on E. coli and 200 µg/mL in the assay with P. aeruginosa.
